Like-named read-outs stand apart in the source and are kept apart here.
Columns and labels:
[1] = tested on: soybean plants (variety S20-G7); assay: Reduced plant water use in soybean (foliar spray, repeated weighing of pots); format: in vivo; conditions: Glycine max, foliar, Table B1, sprayed at 500 μM, vs negative control
Outline: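 Compounds in blank EC formulation diluted in water with EXTRAVON 1 g/20 L, foliar-sprayed on 12-day-old soybean in growth chambers. Water use from repeated pot weighing at a.m./p.m. periods over 0-2 DAA, summed to cumulative 0-2.5 DAA; ANCOVA with pre-application baseline covariate, relative to blank-formulation control.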

[2] = tested on: corn plants (variety NK OCTET); assay: Reduced plant water use in corn (foliar spray, repeated weighing of pots); format: in vivo; conditions: Zea mays, corn plants sprayed at 500 μM, average of 6 pots
Protocol: Compounds were tested for their effect on reducing plant water use as follows. The compounds were applied by foliar spray to 12 day old corn plants (variety NK OCTET) grown in controlled environment plant growth chambers. All compounds were applied using an emulsifiable concentrate (EC) formulation that was diluted to the desired concentrations with water containing 0.4% of the adjuvant rape seed methyl ester. Plant water use during the day was assessed by repeated weighing of the pots in which the plants were grown before and after application of the compounds at the indicated times (expressed in days after application (DAA)). The water use data before application was used to correct any differences in water use arising due to non-treatment effects (e.g. due to differences in plant size). The untransformed water use values were subjected to an analysis of covariance, fitting the effect of treatment and using the baseline water use 1 day before application as a covariate. Application of the chemicals (0 DAA) takes place approximately between 08:00 and 09:30 a.m. WU is measured within day time (chamber light is on 06:00 to 20:00) at these timepoints: 0 DAA a.m. (10:30-12:50), 0 DAA p.m. (14:00-19:50), 1 DAA a.m. (07:30-12:50), 1 DAA p.m. (14:00-19:50), 2 DAA a.m. (07:30-12:50) and 2 DAA p.m. (14:00-19:50). The cumulative total WU (0-2.5 DAA) is calculated by summing the WU data mentioned above.

[3] = 0 h, 0 DAA a.m. (10:30-12:50), read-out: % WU 0 DAA AM
[4] = 24 h, 1 DAA a.m. (7:30-12:50), read-out: % WU 1DAA AM
[5] = 24 h, 1 DAA p.m. (14:00-19:50), read-out: % WU 1DAA PM
[6] = 48 h, 2 DAA a.m. (07:30-12:50), read-out: % WU 2 DAA AM
[7] = 48 h, 2 DAA p.m. (14:00-19:50), read-out: % WU 2 DAA PM
[8] = 60 h, cumulative total WU (0-2.5 DAA), read-out: % WU Total 0 to 2.5 DAA
[9] = 0 h, water use during day time vs negative control, 0 DAA a.m. (10:30-12:50), read-out: % WU 0 DAA AM
[10] = 0 h, water use during day time vs negative control, 0 DAA p.m. (14:00-19:50), read-out: % WU 0DAA PM
[11] = 24 h, water use during day time vs negative control, 1 DAA a.m. (07:30-12:50), read-out: % WU 1DAA AM
[12] = 24 h, water use during day time vs negative control, 1 DAA p.m. (14:00-19:50), read-out: % WU 1DAA PM
[13] = 48 h, water use during day time vs negative control, 2 DAA a.m. (07:30-12:50), read-out: % WU 2 DAA AM
[14] = 48 h, water use during day time vs negative control, 2 DAA p.m. (14:00-19:50), read-out: % WU 2 DAA PM
[15] = 60 h, cumulative total water use 0-2.5 DAA (sum of the time points) vs negative control, read-out: % WU Total 0 to 2.5 DAA

| melting point [°C] | SMILES | change in vivo at 500 µM [1, 3] [%] | change in vivo at 500 µM [1, 4] [%] | change in vivo at 500 µM [1, 5] [%] | change in vivo at 500 µM [1, 6] [%] | change in vivo at 500 µM [1, 7] [%] | change in vivo at 500 µM [1, 8] [%] | change in vivo at 500 µM [2, 9] [%] | change in vivo at 500 µM [2, 10] [%] | change in vivo at 500 µM [2, 11] [%] | change in vivo at 500 µM [2, 12] [%] | change in vivo at 500 µM [2, 13] [%] | change in vivo at 500 µM [2, 14] [%] | change in vivo at 500 µM [2, 15] [%] |
| --- | --- | --- | --- | --- | --- | --- | --- | --- | --- | --- | --- | --- | --- | --- |
| 176 to 183 | CCN1C(=O)CCc2cc(CNS(=O)(=O)c3ccc(Br)cc3)ccc21 [Compound 2.002, 4-bromo-N-[(1-ethyl-2-oxo-3,4-dihydroquinolin-6-yl)methyl]benzenesulfonamide] | -10.4 | -6.5 | -4 | -5.6 | -4.2 | -5.8 | -10.8 | -3.6 | -3.2 | -3.9 | -1.2 | -1.7 | -3.2 |
| 180 to 181 | CCN1C(=O)CCc2cc(CNS(=O)(=O)c3ccc(C(F)(F)F)cc3)ccc21 [Compound 2.015, N-[(1-ethyl-2-oxo-3,4-dihydroquinolin-6-yl)methyl]-4-(trifluoromethyl)benzenesulfonamide] |  |  |  |  |  |  | -8.9 | -3.4 | -4 | -2.6 | -1.9 | -1 | -2.9 |
| 134 to 137 | CCN1C(=O)CCc2cc(CNS(=O)(=O)/C=C/c3ccccc3)ccc21 [Compound 2.051, (E)-N-[(1-ethyl-2-oxo-3,4-dihydroquinolin-6-yl)methyl]-2-phenyl-ethenesulfonamide] |  |  |  |  |  |  | -13.2 | -8.5 | -10.7 | -8.6 | -8.7 | -6.5 | -9.1 |

The remaining lines, values behind:

| SMILES | melting point [°C] | change in vivo at 500 µM [1, 3] [%] | change in vivo at 500 µM [1, 4] [%] | change in vivo at 500 µM [1, 5] [%] | change in vivo at 500 µM [1, 6] [%] | change in vivo at 500 µM [1, 7] [%] | change in vivo at 500 µM [1, 8] [%] | change in vivo at 500 µM [2, 9] [%] | change in vivo at 500 µM [2, 10] [%] | change in vivo at 500 µM [2, 11] [%] | change in vivo at 500 µM [2, 12] [%] | change in vivo at 500 µM [2, 13] [%] | change in vivo at 500 µM [2, 14] [%] | change in vivo at 500 µM [2, 15] [%] |
| --- | --- | --- | --- | --- | --- | --- | --- | --- | --- | --- | --- | --- | --- | --- |
| CCN1C(=O)CCc2cc(CNS(=O)(=O)c3ccc(F)cc3F)ccc21 [Compound 2.006, N-[(1-ethyl-2-oxo-3,4-dihydroquinolin-6-yl)methyl]-2,4-difluoro-benzenesulfonamide] | 167 to 168 | -23.4 | -13.8 | -13 | -10.4 | -7.3 | -13.2 | -12.5 | -6.7 | -6.5 | -5.5 | -3 | -3.2 | -5.4 |
| CCN1C(=O)CCc2cc(CNS(=O)(=O)c3ccc(C)s3)ccc21 [Compound 2.061, N-[(1-ethyl-2-oxo-3,4-dihydroquinolin-6-yl)methyl]-5-methyl-thiophene-2-sulfonamide] | 149 to 152 | -50.4 | -7.9 | -2.2 | -0.5 | -1.2 | -13.7 | -18.8 | -10.8 | -7.5 | -2.8 | -1.6 | -0.8 | -6.2 |
| CCN1C(=O)CCc2cc(CNS(=O)(=O)c3ccsc3)ccc21 [Compound 2.068, N-[(1-ethyl-2-oxo-3,4-dihydroquinolin-6-yl)methyl]thiophene-3-sulfonamide] | 128 to 131 | -27 | -18.1 | -14.7 | -11.6 | -7.5 | -15.3 | -16.6 | -15.1 | -12.9 | -11.4 | -9.2 | -9.1 | -11.8 |

Source: US10392348B2, “2-oxo-3,4-dihydroquinoline compounds as plant growth regulators” (Syngenta Participations AG, priority 2015, dated 2019)
